Experiments:
[1] = target: T1, CRISP2 (Homo sapiens, UniProt P16562); experiment: MST binding to CRISP2; set-up: species or system mammalian; details: calcium chloride titration, read-out: Kd, calcium binding by CRISP2
T1 construct: made in house; host or cells: E. coli BL21
T1 sequence (P16562 22-243): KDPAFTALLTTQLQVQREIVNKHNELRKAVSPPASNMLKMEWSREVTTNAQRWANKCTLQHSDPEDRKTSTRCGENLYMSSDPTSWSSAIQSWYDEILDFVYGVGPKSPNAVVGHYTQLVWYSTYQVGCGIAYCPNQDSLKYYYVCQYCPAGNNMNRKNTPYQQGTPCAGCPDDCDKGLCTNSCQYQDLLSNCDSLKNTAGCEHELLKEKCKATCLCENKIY
Excerpt: To confirm the direct interaction of PSP94 with CRISP3 and to test whether PSP94 would also bind other CAP family members such as yeast Pry1, or CRISP2, we performed in vitro protein binding assay using microscale thermophoresis (MST). Therefore, PSP94 and the CAP family members, Pry1, CRISP2, and CRISP3, were expressed as fusion proteins with a C-terminal polyhistidine tag in Escherichia coli, and the proteins were affinity purified on nickel-NTA agarose beads. The purified CAP proteins were then fluorescently labeled using RED-tris-NTA and incubated with varying concentrations of PSP94. […] PSP94 thus has high binding affinity for all three CAP proteins tested, and it also binds the CAP domain of Pry1 (Pry1^CAP) alone.
DNA encoding proteins of interest were PCR amplified and cloned into NcoI and XhoI restriction sites of pET22b, which contains a PelB signal sequence to direct the secretion of expressed protein into the periplasmic space. Plasmids were transformed into E. coli BL21, and proteins were expressed with a C-terminal polyhistidine tag. Different induction strategies were used: overnight induction with lactose at 24 °C for Pry1, CRISP2, and PSP94 and 6 h of induction with 0.4 mM IPTG at 24 °C for the CAP domain of Pry1. Cells were collected and lysed, and the soluble cell lysate was incubated with nickel-nitrilotriacetic acid beads as per the manufacturer instructions (Qiagen). Beads were washed and loaded onto a Ni^2+-NTA column, and proteins were eluted with a buffer containing 60 mM NaH2PO4, 300 mM NaCl, and 300 mM imidazole, pH 8.0. […] Protein concentration was determined by Lowry assay using the Folin reagent and bovine serum albumin as protein standard.
MST experiments were performed to assess protein–protein, protein–lipid, and protein–calcium interactions using a Monolith NT.115 (Nanotemper Technologies). […] The dissociation constant Kd was obtained by plotting the normalized fluorescence (Fnorm) against the logarithm of ligand concentration. […]

[2] = target: T2, PSP94 (Homo sapiens, UniProt P08118); experiment: MST binding to PSP94; details: calcium chloride titration
T2 construct: made in house; host or cells: E. coli BL21
T2 sequence (P08118 21-114): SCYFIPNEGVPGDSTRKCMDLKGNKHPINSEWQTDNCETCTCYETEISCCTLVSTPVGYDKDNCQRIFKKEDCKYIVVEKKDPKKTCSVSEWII
Description: To test whether the interaction between PSP94 and CAP family members affects their sterol binding in vitro, we performed ligand binding assays using a more water-soluble cholesterol derivative, cholesterol sulfate. […] In the presence of an equimolar concentration of PSP94, however, sterol binding by the CAP proteins was blocked (Fig. 3B).
MST experiments were performed to assess protein–protein, protein–lipid, and protein–calcium interactions using a Monolith NT.115 (Nanotemper Technologies). Proteins were labeled using the RED-tris-NTA His tag protein labeling kit. Labeled CAP proteins, 100 nM, were mixed with a serial dilution of unlabeled PSP94, PSP9^F24G, cholesterol sulfate, or calcium chloride, prepared in binding buffer (20 mM Tris pH 7.5, 30 mM NaCl, 0.05% Triton X-100). Samples were loaded into MST standard capillaries, and MST measurements were performed using an 80% laser power setting. The dissociation constant Kd was obtained by plotting the normalized fluorescence (Fnorm) against the logarithm of ligand concentration. Experiments were performed in triplicates, and data were fitted using the Kd model of the MO.Affinity Analysis software (Nanotemper Technologies). For binding inhibition studies, CAP proteins and PSP94 were preincubated for 5 min at 24 °C before performing binding studies with cholesterol sulfate.

[3] = test system: sterol export by CAP proteins (Pry1, CRISP2, CRISP3); experiment: In vivo sterol export assay ([14C]cholesteryl acetate export) in yeast; assay type: cell-based, Saccharomyces cerevisiae; details: 10 mM calcium in medium, cells expressing CRISP2 and PSP94
Excerpt: To test whether expression of PSP94 would affect the function of Pry1 in sterol export, we expressed PSP94 fused to the N-terminal signal sequence from Pry1 (amino acids 1–19) from a constitutive alcohol dehydrogenase promoter (ADH1) to direct the protein into the yeast secretory pathway. This PSP94-containing plasmid was then transformed into heme-deficient yeast cells lacking the sterol deacetylase Say1 (hem1Δ say1Δ). This strain is able to take up radiolabeled [^14C]cholesterol, acetylate it in an alcohol acetyltransferase 2 (Atf2)-dependent pathway, and secrete the resulting radiolabeled cholesteryl acetate back into the culture medium ([29]). […] To test whether expression of PSP94 would affect the synthesis or secretion of Pry1, CRISP2, or CRISP3, we coexpressed FLAG-tagged PSP94 with hemagglutinin (HA)-tagged Pry1, CRISP2, or CRISP3, separated yeast cells from the culture medium, precipitated proteins from both fractions with trichloroacetic acid (TCA), and detected the tagged proteins by Western blotting.
The sterol export assay was performed as described ([29]). […] Extracted radiolabeled lipids were quantified by scintillation counting, and volumes corresponding to 10,000 cpm (counts per minute) were dried. […] TLC plates were then exposed to phosphorimager screens, and radiolabeled lipids were visualized and quantified using a phosphorimager. […]

[4] = target: T3, CRISP2–PSP94 heteromeric complex (Homo sapiens, UniProt P16562); experiment: Coimmunoprecipitation of PSP94-FLAG with CRISP2-HA from culture medium; assay type: cell-based, Saccharomyces cerevisiae
T3 construct: expressed in transfected cells; host or cells: Saccharomyces cerevisiae, plasmids pRS416 (CRISP2) and pRS414 (PSP94), ADH1 promoter
Description: To test whether calcium also affects the formation of the heteromeric complex in vivo, we analyzed complex formation by coimmunoprecipitation. Cells expressing CRISP2-HA and PSP94-FLAG were cultivated in the absence or presence of calcium (5 and 10 mM CaCl2), CRISP2-HA was immunoprecipitated from the culture medium, and Western blots were probed for the presence of PSP94-FLAG.
For Coimmunoprecipitation analysis, CRISP2 wildtype and mutant versions were tagged with an HA epitope tag, and wildtype PSP94 and the PSP94^F24G mutant version were fused to a FLAG tag. Yeast strains expressing these proteins were grown overnight and collected by centrifugation. The cell pellet was resuspended in lysis buffer (50 mM Tris-HCl pH 7.5, 100 mM NaCl, 0.1% NP-40, 10% glycerol, protease inhibitor, and 1 mM PMSF), and cells were broken with glass beads in a Precellys homogenizer. The culture medium was concentrated using size-exclusion protein concentrator spin columns (3K MWCO, Pierce, Thermo Scientific). Protein concentration was estimated by Bradford assay (Bio-Rad), and both the cell lysate and concentrated culture medium were incubated overnight at 4 °C with anti-HA magnetic beads (Pierce, Thermo Scientific). […] Samples were denatured for 10 min at 95 °C and analyzed by SDS-PAGE and Western blotting. […]

[Ca+2] [calcium, calcium chloride]
Kd [1]: 0.052 ± 0.0009 µM | Kd [2]: 376 ± 1.7 µM | effect on sterol export by CRISP2 in the presence of PSP94 [3]: restored sterol binding and export by CRISP2 | complex formation between CRISP2 and PSP94 ([4]; cells grown in 5 mM calcium): reduced | complex formation between CRISP2 and PSP94 ([4]; cells grown in 10 mM calcium): could no longer be detected
